Substitutions are numbered along the chain they refer to. Several values for one entry are separate records, joined by “and”; a condition that tells them apart may be missing. Equal entries are not always repeated.
Legend:
Format in all cases: cell-based
hTA1 = biological target: T1, hTA1 (Homo sapiens, UniProt Q96RJ0); assay: GloSensor cAMP accumulation assay, concentration response, wild-type hTA1 in transfected HEK293T cells; conditions: for Dose-response curves for asenapine vs endogenous trace amines: log[Compound], replicate values (N=2);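 for all read-outs here: luminescence read after 30 min compound exposure at room temperature in cells preloaded with D-Luciferin, reflecting Gs-driven cAMP rise, efficacy scaled to the maximal β-PEA response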
T1 construct: expressed in transfected cells; host or cells: HEK293T
T1 sequence (Q96RJ0 1-339): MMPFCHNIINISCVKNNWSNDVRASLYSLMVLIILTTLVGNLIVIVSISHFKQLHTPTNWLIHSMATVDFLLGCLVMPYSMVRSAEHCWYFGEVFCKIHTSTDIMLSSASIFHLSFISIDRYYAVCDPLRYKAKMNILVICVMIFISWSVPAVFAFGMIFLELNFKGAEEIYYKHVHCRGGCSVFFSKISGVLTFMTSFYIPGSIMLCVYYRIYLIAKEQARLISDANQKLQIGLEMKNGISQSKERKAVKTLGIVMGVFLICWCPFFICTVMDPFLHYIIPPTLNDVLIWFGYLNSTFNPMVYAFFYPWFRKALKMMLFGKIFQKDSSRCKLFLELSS

[1] = biological target: T2, β2AR-Nterm-hTA1-F112^3.41W (CryoEM Construct) (Homo sapiens, UniProt Q96RJ0, F112W); assay: GloSensor cAMP accumulation assay, cryoEM construct;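 note: cells transiently co-transfected with the receptor construct and GloSensor cAMP biosensor, luminescence read after 30 min compound exposure at room temperature in the dark as cAMP accumulation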;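 for Normalized Luminescence Counts (N=2): normalized to the maximum response of β-PEA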
T2 construct: FLAG (N); 10xHis (N); TEV protease site (N); expressed in transfected cells; host or cells: HEK293T
T2 sequence (Q96RJ0 with tags, fused parts or gaps F112W): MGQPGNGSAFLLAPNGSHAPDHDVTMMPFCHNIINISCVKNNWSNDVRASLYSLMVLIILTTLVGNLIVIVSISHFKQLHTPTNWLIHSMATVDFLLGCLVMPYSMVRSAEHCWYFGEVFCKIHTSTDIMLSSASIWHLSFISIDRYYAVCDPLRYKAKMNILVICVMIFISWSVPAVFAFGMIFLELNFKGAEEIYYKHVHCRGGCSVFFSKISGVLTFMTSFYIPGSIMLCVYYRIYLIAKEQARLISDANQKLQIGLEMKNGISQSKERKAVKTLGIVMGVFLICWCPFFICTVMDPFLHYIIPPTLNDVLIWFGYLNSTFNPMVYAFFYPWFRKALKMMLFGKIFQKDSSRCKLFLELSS

hTA1 b2N = biological target: T3, hTA1 b2N (Homo sapiens, UniProt Q96RJ0); assay: GloSensor cAMP accumulation assay, b2N construct; conditions: b2N, n=2
T3 construct: read by me as the first 25 residues of β2AR (N); expressed in transfected cells; host or cells: HEK293T
T3 sequence (Q96RJ0 with tags, fused parts or gaps): as the sequence (Q96RJ0 with tags, fused parts or gaps F112W) above, with W137F counted along it

hTA1 C5S = biological target: T4, hTA1 C5S (Homo sapiens, UniProt Q96RJ0, C5S); assay: GloSensor cAMP accumulation assay, C5S mutant; conditions: for C5S - Normalized Luminescence Counts (N=2): log[Compound], single wells
T4 construct: expressed in transfected cells; host or cells: HEK293T
T4 sequence (Q96RJ0 1-339 C5S): T1 sequence (Q96RJ0 1-339) with C5S

hTA1 I290Y = biological target: T5, hTA1 I290Y (Homo sapiens, UniProt Q96RJ0, I290Y); assay: GloSensor cAMP accumulation assay, I290Y mutant; conditions: for cAMP accumulation response, normalized (concentration-response source data, single replicate values): hTA1 I290Y (N=3), log[Compound];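 for cAMP accumulation response, normalized (concentration-response source data, single replicate values): normalized to the maximum response of β-PEA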
T5 construct: expressed in transfected cells; host or cells: HEK293T
T5 sequence (Q96RJ0 1-339 I290Y): T1 sequence (Q96RJ0 1-339) with I290Y

[2] = Cryo EM Construct, mean of each independent experiment (3 replicates)

NCCc1ccc(Oc2ccc(O)cc2)c(I)c1 [T1AM, 3-iodothyronamine]
pEC50 values, Avg (hTA1; WT hTA1, average of the two experiments, Figure 2B source data): 6.129
pEC50 values, Mean (hTA1; WT hTA1, each line an independent experiment, 3 replicates, Figure 2B source data): 6.182 and 6.077
Emax values, Avg (hTA1; WT hTA1, β-PEA = 100, average of the two experiments): 70.45
Emax values, Mean (hTA1; WT hTA1, β-PEA = 100, each line an independent experiment, 3 replicates): 81.6192 and 59.2734
Emax values, Avg (hTA1; WT, average of the experiments, β-PEA = 100): 70.45
Emax values, Avg (hTA1; WT, average of the two experiments): 70.45
Emax values, Mean (hTA1; WT, mean of each independent experiment (3 replicates), β-PEA = 100): 81.6192 and 59.2734
Emax values, Mean (hTA1; WT, single experiments (3 replicates each), β-PEA = 100): 81.6192 and 59.2734
Dose-response curves for asenapine vs endogenous trace amines (hTA1; M = -5): 80.3892 and 70.8419 and 77.0287 and 53.9778 and 58.2977 and 47.0284
Dose-response curves for asenapine vs endogenous trace amines (hTA1; M = -5.522): 67.6372 and 58.4905 and 72.8448 and 53.4613 and 47.5449 and 34.1625
Dose-response curves for asenapine vs endogenous trace amines (hTA1; M = -6): 47.6524 and 43.0457 and 45.9165 and 36.4633 and 32.8477 and 25.2879
Dose-response curves for asenapine vs endogenous trace amines (hTA1; M = -6.522): 27.5341 and 25.2641 and 26.1988 and 18.1976 and 14.2064 and 10.9195
Dose-response curves for asenapine vs endogenous trace amines (hTA1; M = -7): 12.6456 and 9.641 and 11.7554 and 4.346 and 3.125 and 2.796
Dose-response curves for asenapine vs endogenous trace amines (hTA1; M = -7.522): 2.609 and 0.272 and 1.897 and 0.1666 and -0.02121 and -0.8664
Dose-response curves for asenapine vs endogenous trace amines (hTA1; M = -8): 1.34 and 0.4055 and 0.9619 and 0.2136 and -0.06817 and -0.9603
Dose-response curves for asenapine vs endogenous trace amines (hTA1; M = -8.522): -0.9075 and -0.6182 and -0.5737 and -1.007 and 0.1197 and -2.04
Dose-response curves for asenapine vs endogenous trace amines (hTA1; M = -9): -0.9521 and -0.863 and -1.419 and -0.8664 and -0.8195 and -1.618
Dose-response curves for asenapine vs endogenous trace amines (hTA1; M = -9.522): -1.019 and -2.087 and -1.442 and -1.383 and -0.8195 and -2.228
Dose-response curves for asenapine vs endogenous trace amines (hTA1; M = -10): -0.863 (2×) and -1.286 and -1.477 and -1.054 and -1.571
Dose-response curves for asenapine vs endogenous trace amines (hTA1; M = -10.522): -1.531 and -2.287 and -1.464 and -1.571 and -1.336 and -1.618
Dose-response curves for asenapine vs endogenous trace amines (hTA1; M = -11): -0.1731 and -0.9075 and -0.3734 and -0.5847 and 0.1197 and -1.054
Dose-response curves for asenapine vs endogenous trace amines (hTA1; M = -11.522): -0.507 and -1.152 and -1.197 and -0.209 and -0.1151 and -1.054
Dose-response curves for asenapine vs endogenous trace amines (hTA1; M = -12): -0.774 and -1.419 and -1.8645 and -1.336 (2×) and -1.571
Dose-response curves for asenapine vs endogenous trace amines (hTA1; M = -12.522): -1.019 and -1.798 (2×) and -0.7255 and -1.43 and -2.087
pEC50 ± SEM (hTA1; wt hTA1, HEK293T, n=3): 6.13 ± 0.04
EC50 (hTA1; wt hTA1, HEK293T, n=3, read-out: EC50): 743 nM
Emax (hTA1; wt hTA1, relative to β-PEA): 70.5%
ΔEmax values (each mutant value - WT average), Mean ([1]; Cryo EM Construct minus WT average): 57.4068 and 36.3707
Emax values, Mean [1, 2]: -0.05087 and 0.4178
pEC50 values, Mean [1, 2]: 6.078 and 6.547
Normalized Luminescence Counts (N=2) ([1]; CryoEM Construct, log[Compound], M = -5, single replicates): 123.162 and 140.16 and 121.528 and 161.688
Span ± SEM (Emax normalized to β-PEA) ([1]; CryoEM Construct, n=2): 115.44
pEC50 ± SEM ([1]; CryoEM Construct, n=2): 6.3 ± 0.04
EC50 ([1]; CryoEM Construct, n=2, read-out: EC50): 491 nM
Span ± SEM (Emax normalized to β-PEA) (hTA1 b2N): 80.48
pEC50 ± SEM (hTA1 b2N): 6.65 ± 0.05
EC50 (hTA1 b2N; read-out: EC50): 224 nM
Span ± SEM (Emax normalized to β-PEA) (hTA1 C5S; C5S, n=2): 81.19 ± 8.03
pEC50 ± SEM (hTA1 C5S; C5S, n=2): 5.95 ± 0.04
EC50 (hTA1 C5S; C5S, n=2, read-out: EC50): 1110 nM
pEC50 values, Mean (hTA1 C5S; hTA1 C5S, mean of 3 replicates, one line per independent experiment): 6.184 and 5.721
Emax values, Mean (hTA1 C5S; hTA1 C5S, β-PEA = 100, mean of 3 replicates, one line per independent experiment): 73.1551 and 89.2227
C5S - Normalized Luminescence Counts (N=2) (hTA1 C5S; M = -5): 66.8501 and 72.156 and 68.5661 and 75.0127 and 63.7584 and 82.7458
C5S - Normalized Luminescence Counts (N=2) (hTA1 C5S; M = -5.522): 58.0446 and 60.9798 and 52.4226 and 59.2704 and 49.2589 and 55.9562
Span ± SEM (Emax normalized to β-PEA) (hTA1 I290Y; I290Y): 68.94 ± 4.39
pEC50 ± SEM (hTA1 I290Y; I290Y): 6.05 ± 0.08
EC50 (hTA1 I290Y; I290Y, read-out: EC50): 889 nM
pEC50 values, Mean (hTA1 I290Y; I290Y, single experiments (3 replicates each)): 6.088 and 6.268 and 5.798
Emax values, Mean (hTA1 I290Y; I290Y, single experiments (3 replicates each), β-PEA = 100): 77.2061 and 62.2509 and 67.3555
cAMP accumulation response, normalized (concentration-response source data, single replicate values) (hTA1 I290Y; M = -5): 82.7627 and 66.4498 and 84.9173 and 54.2232 and 60.0862 and 58.254 and 61.3384 and 53.4426 and 63.5944
cAMP accumulation response, normalized (concentration-response source data, single replicate values) (hTA1 I290Y; M = -5.522): 50.7524 and 44.2888 and 57.216 and 57.1547 and 52.391 and 42.1307 and 35.395 and 42.1629 and 29.7552
cAMP accumulation response, normalized (concentration-response source data, single replicate values) (hTA1 I290Y; M = -6): 45.5199 and 34.7472 and 39.6719 and 40.665 and 36.2677 and 35.5349 and 24.1153 and 32.0111 and 19.6034
cAMP accumulation response, normalized (concentration-response source data, single replicate values) (hTA1 I290Y; M = -6.522): 32.5927 and 17.8187 and 23.9745 and 21.6102 and 23.076 and 24.1753 and 17.3474 and 11.7076 (2×)
cAMP accumulation response, normalized (concentration-response source data, single replicate values) (hTA1 I290Y; M = -7): 19.6655 and 9.201 and 18.4343 and 8.4185 and 1.456 and 10.9836 and 6.068 and 3.812 and 4.9397
cAMP accumulation response, normalized (concentration-response source data, single replicate values) (hTA1 I290Y; M = -7.522): 3.968 and -2.188 and 2.737 and 2.189 and -3.307 and -4.04 and -0.7002 and 0.4278 and -1.828
cAMP accumulation response, normalized (concentration-response source data, single replicate values) (hTA1 I290Y; M = -8): 2.429 and 0.2746 and -0.0332 and -1.842 and -5.873 and -3.674 and -2.956 and -4.0841 and -0.7002
cAMP accumulation response, normalized (concentration-response source data, single replicate values) (hTA1 I290Y; M = -8.522): 0.2746 and -3.111 and -0.341 and -6.605 (2×) and -5.873 and -4.0841 (2×) and -5.212
cAMP accumulation response, normalized (concentration-response source data, single replicate values) (hTA1 I290Y; M = -9): -1.88 and -2.803 and -1.572 and 0.7233 and -0.376 and -4.773 and -6.34 and -4.0841 (2×)
cAMP accumulation response, normalized (concentration-response source data, single replicate values) (hTA1 I290Y; M = -9.522): -1.88 and -3.7267 and -2.188 and -6.605 and -1.109 and -4.407 and -4.0841 (2×) and -6.34
cAMP accumulation response, normalized (concentration-response source data, single replicate values) (hTA1 I290Y; M = -10): -0.0332 and -2.496 and -1.572 and -6.605 and -6.972 and 4.021 and -2.956 (2×) and -6.34
cAMP accumulation response, normalized (concentration-response source data, single replicate values) (hTA1 I290Y; M = -10.522): -1.572
